Structures are written as SMILES.

The target of the first assay is T1, α-7 nicotinic acetylcholine receptor channel expressed in HEK 293 cells (Rattus norvegicus, UniProt Q05941).
T1 construct: expressed in transfected cells
T1 sequence (Q05941 23-502): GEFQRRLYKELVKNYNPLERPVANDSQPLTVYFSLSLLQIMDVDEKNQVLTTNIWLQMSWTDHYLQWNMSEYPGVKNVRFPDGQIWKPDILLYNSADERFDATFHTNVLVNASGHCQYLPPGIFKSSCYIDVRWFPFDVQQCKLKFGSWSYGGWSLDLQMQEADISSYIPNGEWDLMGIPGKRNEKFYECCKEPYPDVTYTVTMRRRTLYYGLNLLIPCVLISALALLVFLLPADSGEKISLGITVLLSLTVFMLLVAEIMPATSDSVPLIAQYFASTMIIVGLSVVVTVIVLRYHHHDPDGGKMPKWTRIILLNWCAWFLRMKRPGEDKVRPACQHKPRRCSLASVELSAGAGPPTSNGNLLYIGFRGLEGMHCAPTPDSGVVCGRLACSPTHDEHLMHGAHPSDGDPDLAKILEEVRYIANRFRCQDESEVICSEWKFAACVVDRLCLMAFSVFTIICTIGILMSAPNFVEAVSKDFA
The assay is described as follows: Ca2+-sensitive fluorescence-based FLIPR assay, α7 nicotinic ACh receptor channel function (agonist). The format is cell-based.
Settings: not given
The procedure:
I) α7 Nicotinic Acetycholine Receptor Binding. Membranes were prepared for binding using HEK293 cells stably expressing the rat α7 nicotinic acetycholine receptor (rat α7 nAChR). Cells were homogenized at 4° C. in hypotonic lysis buffer consisting of 10 mM Tris (pH 7.4), 5 mM EDTA and protease inhibitors and centrifuged at 32000×g for 20 minutes. The pellet was washed once in membrane wash buffer consisting of 50 mM Tris (pH 7.4), 1 mM EDTA and protease inhibitors and centrifuged at 32000×g for 20 minutes. This pellet was then resuspended in assay buffer consisting 50 mM KH2PO4 (pH 7.4 at 25° C.), 1 mM EDTA, 0.005% Triton-X 100 and 0.1% (v/v) Sigma Protease Inhibitor Cocktail. Aliquots were then frozen in dry ice/ethanol and kept at −80° C. until the day of the assay. II) A Ca^2+-Sensitive, Fluorescence-Based Assay α-7 for Nicotinic Acetylcholine Receptor Channel Function In Mammalian Cells (“FLIPR”). Summary: Lead compounds are evaluated for agonist activity at […], α3β4, […], and α1β1δ1ε sub-types of nicotinic ACh receptor ion channels expressed in mammalian HEK 293 cells. Agonist potency and efficacy values are determined from kinetic fluorescence Ca^2+ influx measurements made using a 384 well FLIPR (Fluorescence Image Plate Reader). […] In this assay, channel expressing HEK cell lines seeded in 384 well assay plates are loaded with a membrane permeant fluorescent Ca^2+ indicator dye, whose 510 nm green emission signal increases in response to elevation of intracellular Ca^2+ concentration. The basal fluorescence from the cells is monitored in real time, followed by the acute addition of test compounds.
Materials and Methods: Reagents: The acetomethoxy (AM) ester of the Ca^2+ indicator dye Fluo-4 was obtained from InVitrogen, (Carlsbad, Calif.). Acetylcholine and all buffer constituents were purchased from Sigma Chemical Company, St. Louis, Mo. G418 and Minimal Essential Medium were purchased from InVitrogen Life Technologies, Carlsbad, Calif. Fetal bovine serum was purchased from (InVitrogen, Carlsbad, Calif.).
Cell Culture: HEK-293 cells were grown in Minimal Essential Medium containing 10% (v/v) fetal bovine serum at 37° C. in a 5% CO2 incubator. HEK-293 cells stably expressing the ion channels were grown in the same medium with the addition of 500 μg/ml G418.
Ca^2+ flux assays of Ca^2+ channels expressed in HEK-293 cells: HEK-293 cells expressing the ion channels of interest were plated in 384 well, black-walled, clear-bottomed, poly-D-lysine coated plates at a density of ˜20,000 cells/well in 20 μl of Minimal Essential Medium containing 10% (v/v) fetal bovine serum and incubated for 2 days at 29° C. in a 5% CO2 incubator. Prior to assay, cells were loaded with the Fluo-4 AM ester. […] Dye loading was allowed to proceed for 90 minutes at room temperature at which time the dye loading solution was removed and replaced with 40 μl/well of Hanks buffer. Cells loaded with dye were loaded onto a FLIPR384 (Molecular Devices, Sunnyvale, Calif.). Fluo-4 dye was excited using the 488 nm line of an argon laser. Emission was filtered using a 540+/−30 nm bandpass filter. For evaluation of the effects of test compounds using the Ca^2+ flux assay, compounds to be tested were provided in assay ready plates. For nicotinic receptor ion channel expressing cells, the assay was initiated by the addition of 20 μl/well of Hanks buffer containing test compounds. For all assays, data were collected at 1 Hz for 10 seconds (baseline), at which time the compound containing stimulus buffers are added, and further measurements collected at 0.33 Hz for 3 min.
Data Analysis: The statistical robustness of the nicotinic receptor Ca^2+ flux assays is determined from blanks and totals wells. […] The raw fluorescence units data files generated on the FLIPR plate reader are automatically exported and processed by in-house data analysis tools.
The term EC50 denotes the concentration giving half of the maximal effect. Lower therefore signals an effect from little substance. In the case of `c1cncc(/N=C2\NCC3(CN4CCC3CC4)O2)c1` (racemic) [Example 18, (E)-N-(1′-Azaspiro[oxazolidine-5,3′-bicyclo[2.2.2]octane]-2-ylidene)pyridin-3-amine], the EC50 came out at 3930 nM. That is a single-digit micromolar value.

The same assay, now with this note: FLIPR α7 (EC50, nM), Table 1; HEK 293 cells, agonist Ca2+ flux.
Take `COc1nccnc1NC1=NCC2(CN3CCC2CC3)O1` (racemic) [Example 120]: the EC50 was found to be 875 nM.

Turning to `c1ccc(-c2cnc(NC3=NCC4(CN5CCC4CC5)O3)s2)cc1` (single isomer, unassigned) [Example 4b], a half-maximal effect (EC50) was put at 230 nM.

Consider `Cc1cccc2sc(NC3=NCC4(CN5CCC4CC5)O3)nc12` (single isomer, unassigned) [Example 6a], for which the EC50 was 4340 nM.

Consider `c1ccc2[nH]c(NC3=NCC4(CN5CCC4CC5)O3)nc2c1` (single isomer, unassigned) [Example 8a, N-(1H-benzo[d]imidazol-2-yl)-4H-1′-azaspiro[oxazole-5,3′-bicyclo[2.2.2]octan]-2-amine], for which a half-maximal effect (EC50) was put at 120 nM.

`Clc1ccc2nc(NC3=NCC4(CN5CCC4CC5)O3)sc2c1` (single isomer, unassigned) [Example 9a, N-(6-Chlorobenzo[d]thiazol-2-yl)-4H-1′-azaspiro[oxazole-5,3′-bicyclo[2.2.2]octan]-2-amine] gave an EC50 of 7310 nM.

On to `CCOc1ccc2nc(NC3=NCC4(CN5CCC4CC5)O3)sc2c1` (single isomer, unassigned) [Example 11b, N-(6-Ethoxybenzo[d]thiazol-2-yl)-4H-1′-azaspiro[oxazole-5,3′-bicyclo[2.2.2]octan]-2-amine], for which the midpoint of the response, the EC50, lay at 213 nM.

The same assay, now with this note: FLIPR α7 activity rating (EC50, nM), Table 1; HEK 293 cells, agonist Ca2+ flux.
For `c1ccc2sc(NC3=NCC4(CN5CCC4CC5)O3)nc2c1` (racemic) [Example 1, N-(benzo[d]thiazol-2-yl)-4H-1′-azaspiro[oxazole-5,3′-bicyclo[2.2.2]octan]-2-amine], the EC50 was less than 100 nM.

Take `COc1ccc2nc(NC3=NCC4(CN5CCC4CC5)O3)sc2n1` (racemic) [Example 2, N-(5-Methoxythiazolo[5,4-b]pyridin-2-yl)-4H-1′-azaspiro[oxazole-5,3′-bicyclo[2.2.2]octan]-2-amine]: the concentration giving a half-maximal response (EC50) lay within 100 to 1000 nM.

With `Clc1cccc2sc(NC3=NCC4(CN5CCC4CC5)O3)nc12` (racemic) [Example 7, N-(4-chlorobenzo[d]thiazol-2-yl)-4H-1′-azaspiro[oxazole-5,3′-bicyclo[2.2.2]octan]-2-amine], the EC50 lay in the range of 100 to 1000 nM.

`Oc1ccc2nc(NC3=NCC4(CN5CCC4CC5)O3)sc2c1` (racemic) [Example 13, 2-(4H-1′-Azaspiro[oxazole-5,3′-bicyclo[2.2.2]octane]-2-ylamino)benzo[d]thiazol-6-ol] yielded an EC50 of less than 100 nM.

Consider `C1CCc2sc(NC3=NCC4(CN5CCC4CC5)O3)nc2C1` (racemic) [Example 14, N-(4,5,6,7-Tetrahydrobenzo[d]thiazol-2-yl)-4H-1′-azaspiro[oxazole-5,3′-bicyclo[2.2.2]octan]-2-amine], for which the EC50 fell in the range of 100 to 1000 nM.

`CC(C)c1csc(NC2=NCC3(CN4CCC3CC4)O2)n1` (racemic) [Example 15, N-(4-Isopropylthiazol-2-yl)-4H-1′-azaspiro[oxazole-5,3′-bicyclo[2.2.2]octan]-2-amine] yielded an EC50 of 100 to 1000 nM.

Regarding `c1csc(NC2=NCC3(CN4CCC3CC4)O2)n1` (racemic) [Example 16, N-(Thiazol-2-yl)-4H-1′-azaspiro[oxazole-5,3′-bicyclo[2.2.2]octan]-2-amine], the EC50 lay in the range of 100 to 1000 nM.

`COc1ccc(-c2nc(NC3=NCC4(CN5CCC4CC5)O3)sc2C)cc1` (racemic) [Example 17, N-(4-(4-Methoxyphenyl)-5-methylthiazol-2-yl)-4H-1′-azaspiro[oxazole-5,3′-bicyclo[2.2.2]octan]-2-amine] displayed an EC50 of 100 to 1000 nM.

Consider `c1cncc(/N=C2\NCC3(CN4CCC3CC4)O2)c1` (racemic) [Example 18, (E)-N-(1′-Azaspiro[oxazolidine-5,3′-bicyclo[2.2.2]octane]-2-ylidene)pyridin-3-amine], for which the EC50 fell in the range of 1000 to 100000 nM.

With `COc1ccc(-c2csc(NC3=NCC4(CN5CCC4CC5)O3)n2)cc1` (racemic) [Example 20, N-(4-(4-Methoxyphenyl)thiazol-2-yl)-4H-1′-azaspiro[oxazole-5,3′-bicyclo[2.2.2]octan]-2-amine], the EC50 is 100 to 1000 nM.

Consider `Cc1cc(C)c2c(NC3=NCC4(CN5CCC4CC5)O3)nsc2n1` (racemic) [Example 114], for which the EC50 was 100 to 1000 nM.

The molecule `c1cnnc(NC2=NCC3(CN4CCC3CC4)O2)c1` (racemic) [Example 115] returned an EC50 of 1000 to 100000 nM.

`COc1ccc(NC2=NCC3(CN4CCC3CC4)O2)nn1` (racemic) [Example 116] had an EC50 of 1000 to 100000 nM.

The molecule `COc1cncc(NC2=NCC3(CN4CCC3CC4)O2)n1` (racemic) [Example 118] had an EC50 of 1000 to 100000 nM.

Take `COc1nccnc1NC1=NCC2(CN3CCC2CC3)O1` (racemic) [Example 120]: the EC50 lay in the range of 100 to 1000 nM.

As for `CC(C)(C)c1cc(NC2=NCC3(CN4CCC3CC4)O2)ncn1` (racemic) [Example 121], the EC50 fell in the range of 1000 to 100000 nM.

The molecule `Cc1cc(NC2=NCC3(CN4CCC3CC4)O2)nc(C)n1` (racemic) [Example 123] registered an EC50 of 1000 to 100000 nM.

Turning to `Cc1ccc(NC2=NCC3(CN4CCC3CC4)O2)nn1` (racemic) [Example 124], the EC50 lay in the range of 1000 to 100000 nM.

With `c1ccc2sc(NC3=NCC4(CN5CCC4CC5)O3)nc2c1` (single isomer, unassigned) [Example 1a], the EC50 was in the range of 1000 to 100000 nM.

Turning to `c1ccc2sc(NC3=NCC4(CN5CCC4CC5)O3)nc2c1` (single isomer, unassigned) [Example 1b], the EC50 is less than 100 nM.

As to `COc1ccc2nc(NC3=NCC4(CN5CCC4CC5)O3)sc2n1` (single isomer, unassigned) [Example 2a], the concentration giving a half-maximal response (EC50) lay within 1000 to 100000 nM.

In turn, `COc1ccc2nc(NC3=NCC4(CN5CCC4CC5)O3)sc2n1` (single isomer, unassigned) [Example 2b] returned an EC50 of 100 to 1000 nM.

`c1ccc(-c2cnc(NC3=NCC4(CN5CCC4CC5)O3)s2)cc1` (single isomer, unassigned) [Example 4a] returned an EC50 of 1000 to 100000 nM.

For `c1ccc(-c2cnc(NC3=NCC4(CN5CCC4CC5)O3)s2)cc1` (single isomer, unassigned) [Example 4b], the EC50 lay in the range of 100 to 1000 nM.

Turning to `COc1ccc2nc(NC3=NCC4(CN5CCC4CC5)O3)sc2c1` (single isomer, unassigned) [Example 5a], the EC50 was in the range of 1000 to 100000 nM.

Take `COc1ccc2nc(NC3=NCC4(CN5CCC4CC5)O3)sc2c1` (single isomer, unassigned) [Example 5b]: the EC50 was less than 100 nM.

On to `Cc1cccc2sc(NC3=NCC4(CN5CCC4CC5)O3)nc12` (single isomer, unassigned) [Example 6a], for which the EC50 is 1000 to 100000 nM.

On to `Cc1cccc2sc(NC3=NCC4(CN5CCC4CC5)O3)nc12` (single isomer, unassigned) [Example 6b], for which the EC50 was less than 100 nM.

The molecule `Clc1cccc2sc(NC3=NCC4(CN5CCC4CC5)O3)nc12` (single isomer, unassigned) [Example 7a] had an EC50 of 1000 to 100000 nM.

Turning to `Clc1cccc2sc(NC3=NCC4(CN5CCC4CC5)O3)nc12` (single isomer, unassigned) [Example 7b], the EC50 was less than 100 nM.

`c1ccc2[nH]c(NC3=NCC4(CN5CCC4CC5)O3)nc2c1` (single isomer, unassigned) [Example 8a, N-(1H-benzo[d]imidazol-2-yl)-4H-1′-azaspiro[oxazole-5,3′-bicyclo[2.2.2]octan]-2-amine] displayed an EC50 of 100 to 1000 nM.

As for `c1ccc2[nH]c(NC3=NCC4(CN5CCC4CC5)O3)nc2c1` (single isomer, unassigned) [Example 8b, N-(1H-benzo[d]imidazol-2-yl)-4H-1′-azaspiro[oxazole-5,3′-bicyclo[2.2.2]octan]-2-amine], the concentration giving a half-maximal response (EC50) is 1000 to 100000 nM.

On to `Clc1ccc2nc(NC3=NCC4(CN5CCC4CC5)O3)sc2c1` (single isomer, unassigned) [Example 9a, N-(6-Chlorobenzo[d]thiazol-2-yl)-4H-1′-azaspiro[oxazole-5,3′-bicyclo[2.2.2]octan]-2-amine], for which the EC50 fell in the range of 1000 to 100000 nM.

On to `Clc1ccc2nc(NC3=NCC4(CN5CCC4CC5)O3)sc2c1` (single isomer, unassigned) [Example 9b, N-(6-Chlorobenzo[d]thiazol-2-yl)-4H-1′-azaspiro[oxazole-5,3′-bicyclo[2.2.2]octan]-2-amine], for which the EC50 was less than 100 nM.

`Cn1c(NC2=NCC3(CN4CCC3CC4)O2)nc2ccccc21` (single isomer, unassigned) [Example 10a, N-(1-methyl-1H-benzo[d]imidazol-2-yl)-4H-1′-azaspiro[oxazole-5,3′-bicyclo[2.2.2]octan]-2-amine] had an EC50 of 100 to 1000 nM.

The molecule `CCOc1ccc2nc(NC3=NCC4(CN5CCC4CC5)O3)sc2c1` (single isomer, unassigned) [Example 11b, N-(6-Ethoxybenzo[d]thiazol-2-yl)-4H-1′-azaspiro[oxazole-5,3′-bicyclo[2.2.2]octan]-2-amine] came in with an EC50 of 100 to 1000 nM.
